Experimental data published in patent publication US8202513B2, “Aryl potassium channel blockers and uses thereof” (Bionomics Limited, priority 2007, dated 2012).

Target: Kv1.3 channel (Homo sapiens, UniProt P22001)
Assay: not given
Conditions: cited from earlier work

Sequence of Kv1.3 channel (P22001 whole entry): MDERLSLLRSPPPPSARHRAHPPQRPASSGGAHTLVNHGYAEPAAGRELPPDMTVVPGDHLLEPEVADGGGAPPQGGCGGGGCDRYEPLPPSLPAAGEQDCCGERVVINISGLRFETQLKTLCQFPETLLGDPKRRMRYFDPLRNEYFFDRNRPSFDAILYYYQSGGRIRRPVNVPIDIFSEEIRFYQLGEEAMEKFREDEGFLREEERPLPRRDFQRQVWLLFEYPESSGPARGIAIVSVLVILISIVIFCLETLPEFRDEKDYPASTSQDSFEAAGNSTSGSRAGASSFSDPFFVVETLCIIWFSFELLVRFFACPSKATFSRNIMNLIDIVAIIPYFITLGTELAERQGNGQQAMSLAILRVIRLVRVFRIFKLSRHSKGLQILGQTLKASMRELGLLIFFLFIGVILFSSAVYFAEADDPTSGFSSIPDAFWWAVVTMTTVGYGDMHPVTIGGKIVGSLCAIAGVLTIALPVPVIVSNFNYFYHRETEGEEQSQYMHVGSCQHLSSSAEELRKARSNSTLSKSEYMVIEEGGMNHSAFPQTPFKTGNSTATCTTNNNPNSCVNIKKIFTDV

SMILES | blocking activity on the Kv1.3 channel
COc1c2occc2cc2ccc(=O)oc12 [8-Methoxypsoralen (8-MOP), 8-Methoxypsoralen] | weak blocking activity
COc1c(C(C)=O)c(O)c(OC)c2occc12 [Khellinone] | weak blocking activity

Target: T1, hKv1.1 (Homo sapiens, UniProt Q09470)
T1 construct: expressed in transfected cells; host or cells: CHO cells, stably transfected
T1 sequence (Q09470 whole entry): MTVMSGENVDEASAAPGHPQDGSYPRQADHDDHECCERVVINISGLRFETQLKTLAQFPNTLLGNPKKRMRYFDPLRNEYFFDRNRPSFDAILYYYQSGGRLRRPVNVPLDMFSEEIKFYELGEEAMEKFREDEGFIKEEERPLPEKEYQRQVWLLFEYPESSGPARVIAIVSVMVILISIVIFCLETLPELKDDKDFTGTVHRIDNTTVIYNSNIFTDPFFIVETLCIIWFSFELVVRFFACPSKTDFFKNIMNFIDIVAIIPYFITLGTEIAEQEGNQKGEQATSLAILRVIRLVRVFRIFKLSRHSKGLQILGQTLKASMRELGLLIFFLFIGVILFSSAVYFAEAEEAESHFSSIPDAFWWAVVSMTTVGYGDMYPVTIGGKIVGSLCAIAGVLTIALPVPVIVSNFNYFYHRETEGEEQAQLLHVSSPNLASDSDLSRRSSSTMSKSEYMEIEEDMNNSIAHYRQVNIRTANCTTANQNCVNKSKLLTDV
Assay: Inhibition of Kv1.1 currents, planar patch clamp (selectivity)
Format: cell-based
Conditions: CHO cells stably transfected with hKv1.1
Method: (§1) EC50 values for inhibition of Kv1.1 and Kv1.5 currents were determined by the method according to Schmitz et al (2005) Molecular Pharmacology 68, 1254-1270 with the following differences: • 1. Chinese Hamster Ovary (CHO) cells stably transfected with hKv1.1 and hKv1.5 were used in place of transfected rat L929 cells. • 2. All electrophysiology was performed using planar patch clamp (Port-A-Patch, Nanion Technologies Gmbh, Munich) in contrast to conventional patch clamp. • 3. EC50 values shown were determined from averaged dose response data obtained from 3 or more cells.

SMILES | Selectivity for Kv1.3 over Kv1.1 [fold]
COc1c(Cl)c(C)c(C(C)=O)c(OCCc2ccccn2)c1OCCC(C)c1ccc(F)cc1 (centres unmarked) [Example 7d, 1-[3-Chloro-5-[3-(4-fluoro-phenyl)-butoxy]-4-methoxy-2-methyl-6-(2-pyridin-2-yl-ethoxy)-phenyl]-ethanone] | 45
COc1c(Cl)c(C)c(C(C)=O)c(OCCN2CCOCC2)c1OCCC(C)c1ccc(F)cc1 (centres unmarked) [Example 8b, 1-[3-Chloro-5-[3-(4-fluoro-phenyl)-butoxy]-4-methoxy-2-methyl-6-(2-morpholin-4-yl-ethoxy)-phenyl]-ethanone] | 33

Target: hKv1.5 (Homo sapiens, UniProt P22460)
Sequence (P22460 whole entry): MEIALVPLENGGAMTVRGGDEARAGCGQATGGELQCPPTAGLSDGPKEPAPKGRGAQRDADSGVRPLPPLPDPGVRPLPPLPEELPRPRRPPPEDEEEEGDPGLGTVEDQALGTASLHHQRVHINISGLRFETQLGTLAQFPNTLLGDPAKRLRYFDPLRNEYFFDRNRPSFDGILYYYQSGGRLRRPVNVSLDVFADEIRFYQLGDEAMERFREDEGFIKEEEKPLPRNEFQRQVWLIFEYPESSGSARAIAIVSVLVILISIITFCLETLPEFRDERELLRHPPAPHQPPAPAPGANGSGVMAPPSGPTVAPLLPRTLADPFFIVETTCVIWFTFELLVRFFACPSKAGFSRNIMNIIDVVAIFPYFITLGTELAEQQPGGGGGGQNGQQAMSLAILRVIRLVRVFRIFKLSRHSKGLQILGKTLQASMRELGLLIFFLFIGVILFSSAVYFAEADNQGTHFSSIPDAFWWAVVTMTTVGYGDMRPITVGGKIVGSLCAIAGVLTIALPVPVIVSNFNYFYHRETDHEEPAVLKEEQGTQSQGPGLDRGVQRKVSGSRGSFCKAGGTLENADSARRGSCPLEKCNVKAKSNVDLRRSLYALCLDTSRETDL
Assay: Inhibition of Kv1.5 currents, planar patch clamp (selectivity)
Format: cell-based
Conditions: CHO cells stably transfected with hKv1.5
Method: as §1

SMILES | selectivity for Kv1.3 over Kv1.5 [fold]
COc1c(Cl)c(C)c(C(C)=O)c(OCCc2ccccn2)c1OCCC(C)c1ccc(F)cc1 (centres unmarked) [Example 7d, 1-[3-Chloro-5-[3-(4-fluoro-phenyl)-butoxy]-4-methoxy-2-methyl-6-(2-pyridin-2-yl-ethoxy)-phenyl]-ethanone] | 37
COc1c(Cl)c(C)c(C(C)=O)c(OCCN2CCOCC2)c1OCCC(C)c1ccc(F)cc1 (centres unmarked) [Example 8b, 1-[3-Chloro-5-[3-(4-fluoro-phenyl)-butoxy]-4-methoxy-2-methyl-6-(2-morpholin-4-yl-ethoxy)-phenyl]-ethanone] | 35

Target: T2, human Kv1.3 ion channel (Homo sapiens, UniProt P22001)
T2 construct: Human Jurkat cells (which endogenously express hKv1.3) or Chinese Hamster Ovary (CHO) cells stably transfected with hKv1.3 were used; endogenous in cells; host or cells: Human Jurkat cells (endogenous) or CHO cells stably transfected with hKv1.3
T2 sequence (P22001 whole entry): as the sequence (P22001 whole entry) above
Assay: Inhibition of Kv1.3 currents, planar patch clamp
Format: cell-based
Conditions: Human Jurkat cells or CHO cells stably transfected with hKv1.3; averaged dose response data from 3 or more cells
Method: Potency of compounds to inhibit the human Kv1.3 ion channel was determined as follows:
as §1, with “Kv1.3” for “Kv1.1 and Kv1.5”, “1. Human Jurkat cells (which endogenously express hKv1.3) or” for “1.”, “hKv1.3” for “hKv1.1 and hKv1.5”

SMILES | EC50 [nM]
COc1c(Cl)c(C)c(C(C)=O)c(OCCc2ccccn2)c1OCCC(C)c1ccc(F)cc1 (centres unmarked) [Example 7d, 1-[3-Chloro-5-[3-(4-fluoro-phenyl)-butoxy]-4-methoxy-2-methyl-6-(2-pyridin-2-yl-ethoxy)-phenyl]-ethanone] | < 50
COc1c(Cl)c(C)c(C(C)=O)c(OCCN2CCOCC2)c1OCCC(C)c1ccc(F)cc1 (centres unmarked) [Example 8b, 1-[3-Chloro-5-[3-(4-fluoro-phenyl)-butoxy]-4-methoxy-2-methyl-6-(2-morpholin-4-yl-ethoxy)-phenyl]-ethanone] | < 50
COc1c(Cl)c(C)c(C(C)=O)c(OCCN2CCCC(F)(F)C2)c1OCCC(C)c1ccc(F)cc1 (centres unmarked) [Example 17, 1-{3-Chloro-6-[2-(3,3-difluoro-piperidin-1-yl)-ethoxy]-5-[3-(4-fluoro-phenyl)-butoxy]-4-methoxy-2-methyl-phenyl}-ethanone] | < 50
COc1c(Cl)c(C)c(C(C)=O)c(OCCOc2cnccn2)c1OCCC(C)c1ccc(F)cc1 (centres unmarked) [Example 18b, 1-{3-Chloro-5-[3-(4-fluoro-phenyl)-butoxy]-4-methoxy-2-methyl-6-[2-(pyrazin-2-yloxy)-ethoxy]-phenyl}-ethanone] | < 50
COc1c(Cl)c(C)c(C(C)=O)c(OCCn2cncn2)c1OCCC(C)c1ccc(F)cc1 (centres unmarked) [Example 19, 1-[3-Chloro-5-[3-(4-fluorophenyl)-butoxy]-4-methoxy-2-methyl-6-(2-[1,2,4]-triazol-1-yl-ethoxy)-phenyl]-ethanone] | 50 to 150
COc1c(Cl)c(C)c(C(C)=O)c(OCCN2CC(F)(F)C2)c1OCCC(C)c1ccc(F)cc1 (centres unmarked) [Example 20, 1-{3-Chloro-6-[2-(3,3-difluoro-azetidin-1-yl)-ethoxy]-5-[3-(4-fluoro-phenyl)-butoxy]-4-methoxy-2-methyl-phenyl}-ethanone] | 50 to 150
COc1c(Cl)c(C)c(C(C)=O)c(OCCCN2CCOCC2)c1OCCC(C)c1ccc(F)cc1 (centres unmarked) [Example 22b, 1-[3-Chloro-5-[3-(4-fluoro-phenyl)-butoxy]-4-methoxy-2-methyl-6-(3-morpholin-4-yl-propoxy)-phenyl]-ethanone] | < 50
COc1c(Cl)c(C)c(C(C)=O)c(OCCCN2CCS(=O)(=O)CC2)c1OCCC(C)c1ccc(F)cc1 (centres unmarked) [Example 23, 1-{3-Chloro-6-[3-(1,1-dioxo-thiomorpholin-4-yl)-propoxy]-5-[3-(4-fluoro-phenyl)-butoxy]-4-methoxy-2-methyl-phenyl}-ethanone] | < 50
COc1c(Cl)c(C)c(C(C)=O)c(OCCCN2CC[S+]([O-])CC2)c1OCCC(C)c1ccc(F)cc1 (centres unmarked) [Example 24, 1-{3-Chloro-5-[3-(4-fluoro-phenyl)-butoxy]-4-methoxy-2-methyl-6-[3-(1-oxo-thiomorpholin-4-yl)-propoxy]-phenyl}-ethanone] | 50 to 150
COc1c(Cl)c(C)c(C(C)=O)c(OCCc2ccccn2)c1CCCC(C)c1ccc(F)cc1 (centres unmarked) [Example 32, 1-[3-Chloro-5-[4-(4-fluoro-phenyl)-pentyl]-4-methoxy-2-methyl-6-(2-pyridin-2-yl-ethoxy)-phenyl]-ethanone] | < 50
COc1cc(C)c(C(C)=O)c(O)c1OCCCc1ccccc1 [Example 33a, 1-(3-(3-(phenyl)propoxy)-2-hydroxy-4-methoxy-6-methylphenyl)ethanone, reference compound] | > 300
COc1cc(C)c(C(C)=O)c(OCCN2CCOCC2)c1OCCCc1ccccc1 [Example 33b, 1-[4-Methoxy-6-methyl-2-(2-morpholin-4-yl-ethoxy)-3-(3-phenyl-propoxy)-phenyl]-ethanone] | 150 to 300
COc1c(Cl)c(C)c(C(C)=O)c(OCCN2CC(O)C2)c1OCCCc1ccccc1 [Example 38, 1-[3-Chloro-6-[2-(3-hydroxy-azetidin-1-yl)-ethoxy]-4-methoxy-2-methyl-5-(3-phenyl-propoxy)-phenyl]-ethanone] | > 300
COc1c(Cl)c(C)c(C(C)=O)c(OCCN(C)C)c1OCCC(C)c1ccc(F)cc1 (centres unmarked) [Example 40, 1-{3-Chloro-6-(2-dimethylamino-ethoxy)-5-[3-(4-fluoro-phenyl)-butoxy]-4-methoxy-2-methyl-phenyl}-ethanone] | 50 to 150
COc1c(Cl)c(C)c(C(C)=O)c(OCCn2ccnc2)c1OCCC(C)c1ccc(F)cc1 (centres unmarked) [Example 41, 1-[3-Chloro-5-[3-(4-fluoro-phenyl)-butoxy]-6-(2-imidazol-1-yl-ethoxy)-4-methoxy-2-methyl-phenyl]-ethanone] | < 50
COc1c(Cl)c(C)c(C(C)=O)c(OCCN2CCOC[C@@H]2C)c1OCCC(C)c1ccc(F)cc1 (stereo partly drawn) [Example 42, 1-{3-Chloro-5-[3-(4-fluoro-phenyl)-butoxy]-4-methoxy-2-methyl-6-[2-((S)-3-methyl-morpholin-4-yl)-ethoxy]-phenyl}-ethanone] | 50 to 150
COc1ccc(C(C)=O)c(NCCCc2ccccc2)c1 [reference compound] | > 300
COc1ccc(C(C)=O)c(NC(=O)CCc2ccccc2)c1 [reference compound] | > 300

More lines, now with the values ahead:

EC50 [nM] | SMILES
< 50 | COc1c(Cl)c(C)c(C(C)=O)c(OCCN2CCOCC2)c1CCCCc1ccccc1 [Example 26b, 1-(3-Chloro-4-methoxy-2-methyl-6-(2-morpholinoethoxy)-5-5(4-phenylbutyl)phenyl)ethanone]
< 50 | COc1c(Cl)c(C)c(C(C)=O)c(OCCc2ccccn2)c1CCCCc1ccccc1 [Example 27, 1-(3-Chloro-4-methoxy-2-methyl-5-(4-phenylbutyl)-6-(2-(pyridine-2-yl)ethoxy)phenyl)ethanone]
50 to 150 | COc1c(Cl)c(C)c(C(C)=O)c(OCCN2CCOCC2)c1CCCC(C)c1ccc(F)cc1 (centres unmarked) [Example 31b, 1-(3-Chloro-5-(4-(4-fluorophenyl)pentyl)-4-methoxy-2-methyl-6-(2-morpholinoethoxy)phenyl)ethanone]
50 to 150 | COc1c(Cl)c(C)c(C(C)=O)c(OCCNC2CCCC2)c1OCCCc1ccccc1 [Example 34c, 1-[3-Chloro-6-(2-cyclopentylamino-ethoxy)-4-methoxy-2-methyl-5-(3-phenyl-propoxy)-phenyl]-ethanone]
> 300 | COc1c(Cl)c(C)c(C(C)=O)c(OCCN2CC(F)(F)C2)c1OCCCc1ccccc1 [Example 35, 1-[3-Chloro-6-[2-(3,3-difluoro-azetidin-1-yl)-ethoxy]-4-methoxy-2-methyl-5-(3-phenyl-propoxy)-phenyl]-ethanone]
50 to 150 | COc1c(Cl)c(C)c(C(C)=O)c(OCCN2CCSCC2)c1OCCCc1ccccc1 [Example 36, 1-[3-Chloro-4-methoxy-2-methyl-5-(3-phenyl-propoxy)-6-(2-thiomorpholin-4-yl-ethoxy)-phenyl]-ethanone]
150 to 300 | COc1c(Cl)c(C)c(C(C)=O)c(OCCN2CCC(F)(F)C2)c1OCCCc1ccccc1 [Example 37, 1-[3-Chloro-6-[2-(3,3-difluoro-pyrrolidin-1-yl)-ethoxy]-4-methoxy-2-methyl-5-(3-phenyl-propoxy)-phenyl]-ethanone]
> 300 | COc1c(Cl)c(C)c(C(C)=O)c(OCCN2CC(=O)C2)c1OCCCc1ccccc1 [Example 39, 1-[3-Chloro-6-[2-(3-oxo-azetidin-1-yl)-ethoxy]-4-methoxy-2-methyl-5-(3-phenyl-propoxy)-phenyl]-ethanone]
150 to 300 | COc1cc(O)c(C(C)=O)c(OCCCCOc2ccccc2)c1 [reference compound]
> 300 | CCCc1c(NCC)ccc(C(C)=O)c1OCCCc1ccccc1 [reference compound]
> 300 | C=CCc1c(NC(C)=O)ccc(C(C)=O)c1OCCCc1ccccc1 [reference compound]
> 300 | COc1cc(OCCCCOc2ccccc2)c(C(C)=O)c(OCCN2CCOCC2)c1 [reference compound]
> 300 | CC(=O)c1c(OCCCCOc2ccccc2)cccc1OCCN1CCOCC1 [reference compound]
> 300 | CC(=O)c1c(O)cccc1OCCCCOc1ccccc1 [reference compound]
> 300 | CCCC(=O)c1ccc(NC(C)=O)cc1OCCCc1ccccc1 [reference compound]
> 300 | CC(=O)Nc1ccc(C(C)=O)c(OCCCc2ccccc2)c1 [reference compound]
> 300 | CC(=O)c1ccc(N)cc1OCCCc1ccccc1 [reference compound]
